Data set [1] can be described thus: Cytotoxicity against MDCK cells assessed as decrease in cell viability after 40 hrs by CellTiter-Glo assay. The class given is cell-based, Canis lupus familiaris. The settings on record: dog. (In general: ATP-based viability assays read luminescence as a measure of living cells.)
The nature of data set [2]: Cytotoxicity against MDCK cells assessed as cell viability at 50 uM after 40 hrs by CellTiter-Glo assay. The class given is cell-based, Canis lupus familiaris. The settings on record: dog, read-out: Activity.
Data set [3] in a line: Selectivity index, ratio of CC50 against uninfected MDCK cells to IC50 against Influenza A virus (A/WSN/33(H1N1)) infected MDCK cells. The class given is toxicity, cell-based. Particulars: dog; read-out: Ratio CC50/IC50.
Data set [4] is described as follows: Antiviral activity against Influenza A virus (A/WSN/33(H1N1)) infected in MDCK cells assessed as inhibition of virus-induced cytopathic effect at 50 uM incubated for 40 hrs by CellTiter-Glo assay. It counts as functional, Influenza A virus (A/WSN/1933(H1N1)). (In general: Cytopathic effects are the visible damage that an infection or toxin causes in cultured cells.)

A short description of data set [5]: Antiviral activity against Influenza A virus (A/WSN/33(H1N1)) infected in MDCK cells assessed as inhibition of virus-induced cytopathic effect incubated for 40 hrs by CellTiter-Glo assay. The class given is functional, cell-based, Influenza A virus (A/WSN/1933(H1N1)).
Data set [6] can be described thus: Cytotoxicity against MDCK cells assessed as cell viability at 100 uM after 40 hrs in presence of betulinic acid by CellTiter-Glo assay. It counts as cell-based, Canis lupus familiaris. The settings on record: dog, read-out: Activity.
A short description of data set [7]: Binding affinity to recombinant Influenza virus hemagglutinin by surface plasmon resonance analysis. The arrangement: species or system unidentified influenza virus. Particulars: read-out: Kd(app). A general note: In SPR one partner is held on a chip, and binding of the other changes the refractive index at the surface.
Data set [8] can be described thus: Antiviral activity against Influenza A virus (A/WSN/33(H1N1)) infected in MDCK cells assessed as inhibition of virus-induced cytopathic effect at 100 uM incubated for 40 hrs by CellTiter-Glo assay. The class given is functional, Influenza A virus (A/WSN/1933(H1N1)).
Data set [9] is described as follows: Cytotoxicity against MDCK cells assessed as cell viability at 100 uM after 40 hrs by CellTiter-Glo assay relative to control. It counts as cell-based, Canis lupus familiaris. The settings on record: dog, read-out: Activity.
The target in data set [10] is Hemagglutinin (Influenza A virus) (UniProt B4URE7). In words: Inhibition of Influenza A virus (A/WSN/33(H1N1)) hemagglutinin-mediated aggregation of chicken erythrocytes after 30 mins. The settings on record: Influenza A virus (A/WSN/1933(H1N1)).
Hemagglutinin (Influenza A virus), sequence (B4URE7 as listed by the source): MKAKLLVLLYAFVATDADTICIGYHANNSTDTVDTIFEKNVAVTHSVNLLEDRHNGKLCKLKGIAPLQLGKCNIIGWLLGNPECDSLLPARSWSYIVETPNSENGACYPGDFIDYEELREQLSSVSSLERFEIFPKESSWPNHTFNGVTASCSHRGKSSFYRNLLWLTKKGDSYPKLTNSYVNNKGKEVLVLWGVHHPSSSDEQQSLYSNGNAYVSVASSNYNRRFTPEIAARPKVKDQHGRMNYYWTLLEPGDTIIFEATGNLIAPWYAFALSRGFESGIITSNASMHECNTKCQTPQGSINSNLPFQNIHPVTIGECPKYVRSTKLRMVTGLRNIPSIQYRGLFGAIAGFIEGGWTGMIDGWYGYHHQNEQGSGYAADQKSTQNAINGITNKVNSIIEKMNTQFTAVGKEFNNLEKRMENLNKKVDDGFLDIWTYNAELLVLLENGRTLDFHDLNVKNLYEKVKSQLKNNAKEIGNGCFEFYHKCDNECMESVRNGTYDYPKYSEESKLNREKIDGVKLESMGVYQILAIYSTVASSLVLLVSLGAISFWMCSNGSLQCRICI
Data set [11] relates to Influenza A virus (A/WSN/1933(H1N1)). Description: Inhibition of Influenza A virus (A/WSN/33(H1N1)) neuraminidase activity using 4-MUNANA as substrate incubated for 30 mins by fluorescence spectrophotometry relative to control.
Data set [12] can be described thus: Antiviral activity against Influenza A virus (A/WSN/33(H1N1)) infected in MDCK cells assessed as inhibition of viral production up to 2 hrs post-infection by plaque formation assay. The class given is functional, Influenza A virus (A/WSN/1933(H1N1)).
Data set [13] deals with Influenza A virus (A/WSN/1933(H1N1)). In words: Antiviral activity against Influenza A virus (A/WSN/33(H1N1)) infected in MDCK cells assessed as inhibition of viral production after 2 hrs post-infection by plaque formation assay. It counts as functional, cell-based.
A short description of data set [14]: Cytotoxicity against MDCK cells assessed as cell viability at 100 uM after 40 hrs in presence of sialic acid by CellTiter-Glo assay. Particulars: dog, read-out: Activity. It counts as cell-based, Canis lupus familiaris.
Data set [15] can be described thus: Cytotoxicity against MDCK cells assessed as cell viability at 10 uM after 40 hrs by CellTiter-Glo assay. It counts as cell-based, Canis lupus familiaris. The settings on record: dog, read-out: Activity.
A short description of data set [16]: Antiviral activity against Influenza A virus (A/WSN/33(H1N1)) infected in MDCK cells assessed as inhibition of virus-induced cytopathic effect at 10 uM incubated for 40 hrs by CellTiter-Glo assay. It counts as functional, Influenza A virus (A/WSN/1933(H1N1)).

Active and inactive are the calls of the source. The calls are words filed in the database; no cut-off is given here.

What is called CC50 is the concentration giving 50% cytotoxicity. As a reminder, the inhibition is the percentage by which the read-out fell short of the control. As usually defined, the IC50 is the midpoint of a concentration-inhibition curve. As to `CCOC(=O)C1=C[C@@H](OC(CC)CC)[C@H](NC(C)=O)[C@@H](N)C1` [OSELTAMIVIR], the CC50 at 40 h in [1] was greater than 500 µM. For the same compound, in data set [2], the viability at 40 h, 50 µM was 98.5%. Further, in data set [3], the selectivity ratio is greater than 10.8. In addition, in [4], the inhibition at 50 µM is 72.6%. Further, in data set [5], the IC50 stood at 46.5 µM.

Consider `CC(=O)N[C@H]1[C@H]([C@H](O)[C@H](O)CO)O[C@@](O)(C(=O)O)C[C@@H]1O`, for which the values for the viability at 40 h, 100 µM in data set [6] and in [9] were 20.3% and 96.4%, respectively. Further, the Kd in data set [7] amounted to 692 µM. Further, the inhibition at 100 µM in data set [8] worked out at 2%.

As to `C=C(C)[C@@H]1CC[C@]2(C(=O)OCCO[C@]3(C(=O)OC)C[C@H](O)[C@@H](NC(C)=O)[C@H]([C@H](O)[C@H](O)CO)O3)CC[C@]3(C)[C@H](CC[C@@H]4[C@@]5(C)CC[C@H](O)C(C)(C)[C@@H]5CC[C@]43C)[C@@H]12`, the CC50 at 40 h in data set [1] is greater than 500 µM. Moreover, in data set [10], the inhibition entry is “Dose-dependent effect”. Besides, the inhibition entry in data set [11] and in [13] was “inactive” throughout. Also, the selectivity ratio in [3] is greater than 12.1. Moreover, the “inhibition (INH)” value in data set [12] is greater than 75%. The IC50 in [5] worked out at 41.2 µM. Moreover, the Kd in [7] is 17 µM. Also, the inhibition at 100 µM in [8] turned out to be 94.8%. Moreover, the viability at 40 h, 100 µM in [9] is 98.3%.

For `COC(=O)[C@@]1(OCCn2cc(CNC(=O)[C@]34CCC(C)(C)C[C@@H]3C3=CC[C@@H]5[C@@]6(C)CC[C@H](O)C(C)(C)[C@@H]6CC[C@@]5(C)[C@]3(C)CC4)nn2)C[C@H](OC(C)=O)[C@@H](NC(C)=O)[C@H]([C@H](OC(C)=O)[C@@H](COC(C)=O)OC(C)=O)O1`, the CC50 at 40 h in data set [1] is greater than 500 µM. In addition, the selectivity ratio in data set [3] was greater than 5.2. In data set [5], the IC50 came to 95.2 µM. Besides, the inhibition at 100 µM in [8] stood at 57.8%. The viability at 40 h, 100 µM in data set [9] was determined as 97.1%.

For `C=C(C)[C@@H]1CC[C@]2(C(=O)OCCO[C@]3(C(=O)OC)C[C@H](OC(C)=O)[C@@H](NC(C)=O)[C@H]([C@H](OC(C)=O)[C@@H](COC(C)=O)OC(C)=O)O3)CC[C@]3(C)[C@H](CC[C@@H]4[C@@]5(C)CC[C@H](O)C(C)(C)[C@@H]5CC[C@]43C)[C@@H]12`, in data set [1], the CC50 at 40 h is 178 µM. For the same compound, the inhibition entry in data set [11] was “inactive”. For the same compound, the selectivity ratio in [3] worked out at 2.9. In addition, the IC50 in data set [5] stood at 61.3 µM. The inhibition at 100 µM in [8] was found to be 86.6%. Also, the viability at 40 h, 100 µM in data set [9] worked out at 80.7%.

Turning to `C=C(C)[C@@H]1CC[C@]2(C(=O)O)CC[C@]3(C)[C@H](CC[C@@H]4[C@@]5(C)CC[C@H](O)C(C)(C)[C@@H]5CC[C@]43C)[C@@H]12` [BETULINIC ACID], the viability at 40 h, 100 µM in data set [14] came to 20.3%; in data set [9], 22.8%. In data set [7], the Kd amounted to 30 µM.

`COc1cc(/C=C/C(=O)CC(=O)/C=C/c2ccc(O)c(OC)c2)ccc1O` [CURCUMIN]: in data set [1], the CC50 at 40 h is 48.3 µM. The viability at 40 h, 10 µM in data set [15] came out at 98.7%. Besides, the selectivity ratio in data set [3] is 7.2. Besides, the half-inhibitory concentration (IC50) in data set [5] is 6.7 µM. For the same compound, in data set [16], the inhibition at 10 µM came to 69.3%.

Source of the values: ChEMBL document CHEMBL3994565 (Medchemcomm, 2016).
